In PMC10504751, “Chalcone/1,3,4-Oxadiazole/Benzimidazole hybrids as novel anti-proliferative agents inducing apoptosis and inhibiting EGFR & BRAFV^600E” (BMC Chemistry, 2023):
Values joined by “and” are separate entries in the source; they are usually repeats but may differ in a detail not shown here. Identical values can stand only once.

Key:
[1] = test system: Cytochrome C in MCF-7 human breast cancer cell line; assay: Cytochrome C assay; assay type: cell-based; conditions: for Cytochrome C Fold change: MCF-7, vs untreated control; for Cytochrome C Conc: MCF-7 breast cancer cells
[2] = test system: Panc-1, A-549, MCF-7 and HT-29; assay: Propidium iodide anti-proliferative assay, four cell lines together; assay type: cell-based; conditions: Homo sapiens; range over Panc-1, A-549, MCF-7, HT-29; read-out: IC50 range on the four tested cell lines
Method: The propidium iodide (PI) tests^31, 32 were further used for assessment of the IC50 of all synthesized compounds and compared to Doxorubicin as a positive control against four cancer cell lines; pancreatic cancer cell line (Panc-1), epithelial line cancer cell (A-549), breast cancer cell line (MCF-7), and colon cancer cell line (HT-29).
Using the propidium iodide fluorescence assay with doxorubicin as the reference drug, IC50 of the 24 compounds 7a-x, was carried out according to a previously reported procedure^31, 32 against a panel of four human cancer cell lines; epithelial cancer cell line (A-549), breast cancer cell line (MCF-7), colon cancer cell line (HT-29) and pancreas cancer cell line (Panc-1). Compounds 7a-x were incubated with cancer cells for 2 days at different concentrations. See Appendix A.
To explore the antiproliferative potential of compounds propidium iodide fluorescence assay was performed using different cell lines (melanoma cancer cell line LOX-IMVI, pancreatic cancer cell line (Panc-1), epithelial line cancer cell (A-549), breast cancer cell line (MCF-7), and colon cancer cell line (HT-29). To calculate the total nuclear DNA, a fluorescent dye (propidium iodide, PI) is used which can attach to the DNA,^9,^10 thus offering a quick and precise technique. PI cannot pass through the cell membrane and its signal intensity can be considered as directly proportional to the quantity of cellular DNA. Cells whose cell membranes are damaged or have changed permeability are counted as dead ones. The assay was performed by seeding the cells of different cancer cell lines at a density of 3000-7500 cells/well (in 200µl medium) in culture plates followed by incubation for 24h at 37 °C in humidified 5% CO2/95% air atmospheric conditions. […] A fluorometer (Polar-Star BMG Tech) was used to record the readings at excitation and emission wavelengths of 530 and 620 nm for each well. The percentage cytotoxicity of compounds was calculated using the following formula:
Where ATC= Absorbance of treated cells and AC= Absorbance of control. […]

MCF-7 cells [3] = assay: Cell cycle analysis; assay type: cell-based, human; conditions: MCF-7, IC50 (0.95 µM), 24 h
Description: From the previous results, it was concluded that compound 7k might arrest cells at G1/S and prevent it from entering G2/M phase as indicated by decreased percentage of accumulation of cells in G2/M phase compared to control.

MCF-7 cells [4] = assay: Annexin V-FITC/PI apoptosis detection; assay type: cell-based, human; conditions: MCF-7, IC50 (0.95 µM), 24 h
Method: To further study the root for cytotoxic activity of compound 7k, Annexin V-FITC/PI assay method^40, 41 was used to investigate its capability to induce apoptosis.
Apoptosis was determined by flow cytometry based on the Annexin-V-fluoresce in isothiocyanate (FITC) and propidium iodide (PI) staining kit (BD Pharmingen, San Diego, USA) See Appendix A.
Apoptosis was determined by flow cytometry based on the Annexin-V-fluoresce in isothiocyanate (FITC) and propidium iodide (PI) staining kit (BD Pharmingen, San Diego, USA.^15^,1^6 […] Apoptotic cells were defined as Annexin-V-positive. […] Treated cells were trypsinized, washed twice with PBS and transferred into micro centrifuge tubes for centrifugation at1000 rpm for 5 min at room temperature, then resuspended in binding buffer, 5 μL of FITC and PI were added to per eppendorf tube, cells were vortexed, incubated for 15 min at room temperature in dark. Subsequently, cells were analyzed by flow cytometry (Becton Dickinson, Franklin Lakes, and USA).

[5] = test system: Caspase-9 in MCF-7 breast cancer cells; assay: Caspase-9 assay; assay type: cell-based, human; conditions: for Caspase-9 Fold change: MCF-7, vs untreated control; for Caspase-9 Conc: MCF-7 breast cancer cells

SMILES	Cytochrome C Fold change [1]	Cytochrome C Conc [1]	IC50 [2]	percentage of cells in G2/M phase (MCF-7 cells [3]; control 12.22%)	percentage of cells in S phase (MCF-7 cells [3]; control 29.51%)	percentage of cells in G0-G1 phase (MCF-7 cells [3]; control 58.27%)	early apoptosis (MCF-7 cells [4])	late apoptosis (MCF-7 cells [4])	necrosis (MCF-7 cells [4])	Caspase-9 Fold change [5]	Caspase-9 Conc [5]
COc1ccc(-c2nc3cc(-c4nnc(SCC(=O)Nc5ccc(C(=O)/C=C/c6ccccc6)cc5)o4)ccc3[nH]2)cc1 [Compound 7k, 2-{5-[2-(4-Methoxyphenyl)-1 H-benzo[d]imidazol-5-yl]-1,3,4-oxadiazol-2-ylthio}-N-{4-[(E)-3-phenylacryloyl]phenyl}acetamide]	14 fold and 14.00 fold	0.660 ng/mL	950 to 1400 nM	3.19%	34.86%	61.95%	28.71%	12.63%	3.05%	17 fold and 17.00 fold	15.900 ng/mL
COc1ccc(-c2nc3cc(-c4nnc(SCC(=O)Nc5ccc(C(=O)/C=C/c6ccc(Cl)cc6)cc5)o4)ccc3[nH]2)cc1 [Compound 7l, 2-{5-[2-(4-Methoxyphenyl)-1 H-benzo[d]imidazol-5-yl]-1,3,4-oxadiazol-2-ylthio}-N-{4-[(E)-3-(4-chlorophenyl)acryloyl]phenyl}acetamide]	13 fold and 13.00 fold	0.595 ng/mL	1100 to 1650 nM							16 fold and 16.00 fold	15.100 ng/mL
COc1ccc(/C=C/C(=O)c2ccc(NC(=O)CSc3nnc(-c4ccc5[nH]c(-c6ccc(OC)cc6)nc5c4)o3)cc2)cc1 [Compound 7m, 2-{5-[2-(4-Methoxyphenyl)-1 H-benzo[d]imidazol-5-yl]-1,3,4-oxadiazol-2-ylthio}-N-{4-[(E)-3-(4-methoxyphenyl)acryloyl]phenyl}acetamide]	11 fold and 11.00 fold	0.515 ng/mL								15.00 fold	13.900 ng/mL
